This is an account of results in article PMC12196321, “Discovery of Novel Inhibitors of Aspergillus fumigatus DHODH via Virtual Screening, MD Simulation, and In Vitro Activity Assay” (Molecules, 2025).

In the test the target is T1, Aspergillus fumigatus dihydroorotate dehydrogenase (AfDHODH) (Aspergillus fumigatus, UniProt Q4X169).
T1 construct: gene AFUA_2G11010; residues 89–531 with an N-terminal His-tag
T1 sequence (Q4X169 89-531): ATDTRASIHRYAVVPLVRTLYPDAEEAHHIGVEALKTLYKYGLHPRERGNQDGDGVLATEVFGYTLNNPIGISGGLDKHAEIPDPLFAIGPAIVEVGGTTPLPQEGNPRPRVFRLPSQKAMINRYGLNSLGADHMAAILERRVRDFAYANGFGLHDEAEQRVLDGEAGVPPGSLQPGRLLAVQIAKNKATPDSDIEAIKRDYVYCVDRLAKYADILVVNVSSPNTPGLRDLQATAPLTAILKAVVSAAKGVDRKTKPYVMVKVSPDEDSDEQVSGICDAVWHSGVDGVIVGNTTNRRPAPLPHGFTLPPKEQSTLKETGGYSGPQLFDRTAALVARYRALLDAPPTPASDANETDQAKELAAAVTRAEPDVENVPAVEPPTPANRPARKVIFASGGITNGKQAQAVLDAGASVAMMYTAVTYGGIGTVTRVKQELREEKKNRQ
Put plainly: DCIP colorimetric enzyme assay (absorbance at […] nm). In kind it is biochemical.

Usually IC50 stands for the midpoint of a concentration-inhibition curve. Consider `COC(=O)c1c(NC(=S)NNC(=O)c2ccc(Cl)s2)sc(C(=O)N(C)C)c1C` [ZINC67300323], for which the IC50 amounted to 57.3 µM.

The compound `COC(=O)c1c(NC(=S)NNC(=O)c2ccc(Cl)s2)sc(C(=O)N(C)C)c1C` [CHEMBL1509241] had an IC50 of 16.9 µM.
